Counter-ions that a name gives are not always drawn. Like-named read-outs stand apart in the source and are kept apart here.
System: recombinant NL-Rluc virus (NL4-3 with Renilla Luciferase gene) in MT-2 cells
Test: Inhibition of HIV replication (NL-Rluc luciferase reporter virus, MT-2 cells)
Format: cell-based, human immunodeficiency virus (HIV)
Settings: NL43, 120 h

| SMILES | EC50 (read-out: Activity) | EC50 (read-out: EC50 μM) |
| --- | --- | --- |
| Cc1ccc(-c2c(C(OC(C)(C)C)C(=O)O)c(C)nc3cc(-c4ccccc4)nn23)cn1 (centres unmarked) [Example 77] | > 1 µM |  |
| Cc1nc2cc(-c3ccccc3)nn2c(-c2ccc(OCc3ccccc3)cc2)c1C(OC(C)(C)C)C(=O)O (centres unmarked) [Example 31] | > 1 µM |  |
| Cc1nc2cc(-c3ccccc3)nn2c(-c2cc(F)c3c(c2C)CCCO3)c1[C@H](OC(C)(C)C)C(=O)O [Example 39, (2S)-2-tert-butoxy-2-(7-(8-fluoro-5-methylchroman-6-yl)-5-methyl-2-phenylpyrazolo[1,5-a]pyrimidin-6-yl)acetic acid] | < 0.1 µM |  |
| Cc1nc2cc(-c3ccccc3)nn2c(-c2ccc(F)cc2F)c1C(OC(C)(C)C)C(=O)O (centres unmarked) [Example 18] | > 1 µM |  |
| Cc1nc2cc(-c3ccccc3)nn2c(-c2ccc(Oc3ccccc3)cc2)c1C(OC(C)(C)C)C(=O)O (centres unmarked) [Example 24] | > 1 µM |  |
| Cc1nc2cc(-c3cccc(-c4ccncc4)c3)nn2c(-c2cc(F)c3c(c2C)CCCO3)c1[C@H](OC(C)(C)C)C(=O)O [Example 121, (2S)-2-(tert-Butoxy)-2-(7-(8-fluoro-5-methylchroman-6-yl)-5-methyl-2-(3-(pyridin-4-yl)phenyl)pyrazolo[1,5-a]pyrimidin-6-yl)acetic acid, TFA salt] | < 0.1 µM |  |
| Cc1nc2cc(-c3ccccc3)nn2c(-c2ccc3ccccc3c2)c1C(OC(C)(C)C)C(=O)O (centres unmarked) [Example 5] | > 1 µM |  |
| Cc1nc2cc(-c3cccc(Cl)c3)nn2c(CC(C)C)c1[C@H](OC(C)(C)C)C(=O)O [Example 146, (S)-2-(tert-Butoxy)-2-(2-(3-chlorophenyl)-7-isobutyl-5-methylpyrazolo[1,5-a]pyrimidin-6-yl)acetic acid] | > 1 µM |  |
| Cc1ccc(-c2cccc(-c3cc4nc(C)c([C@H](OC(C)(C)C)C(=O)O)c(-c5cc(F)c6c(c5C)CCCO6)n4n3)c2)cc1 [Example 126, (2S)-2-(tert-Butoxy)-2-(7-(8-fluoro-5-methylchroman-6-yl)-2-(4′-methyl-[1,1′-biphenyl]-3-yl)-5-methylpyrazolo[1,5-a]pyrimidin-6-yl)acetic acid, TFA salt] | < 0.1 µM |  |
| Cc1nc2cc(-c3cccc(-c4ccc(F)cc4)c3)nn2c(-c2cc(F)c3c(c2C)CCCO3)c1[C@H](OC(C)(C)C)C(=O)O [Example 124, (2S)-2-(tert-Butoxy)-2-(7-(8-fluoro-5-methylchroman-6-yl)-2-(4′-fluoro-[1,1′-biphenyl]-3-yl)-5-methylpyrazolo[1,5-a]pyrimidin-6-yl)acetic acid, TFA salt] | < 0.1 µM |  |
| Cc1nc2c(-c3ccccc3)cnn2c(-c2ccc3c(c2)CCCO3)c1C(OC(C)(C)C)C(=O)O (centres unmarked) [Example 45, 2-tert-Butoxy-2-(7-(chroman-6-yl)-5-methyl-3-phenylpyrazolo[1,5-a]pyrimidin-6-yl)acetic acid, TFA salt] | 0.1 to 1 µM | 0.24 µM |
| CC(=O)Nc1ccc(-c2c(C(OC(C)(C)C)C(=O)O)c(C)nc3cc(-c4ccccc4)nn23)cc1 (centres unmarked) [Example 11] | > 1 µM |  |
| Cc1nc2c(C)c(-c3cccc(-c4cccc(F)c4)c3)nn2c(-c2cc(F)c3c(c2C)CCCO3)c1[C@H](OC(C)(C)C)C(=O)O [Example 164, (2S)-2-(tert-Butoxy)-2-(7-(8-fluoro-5-methylchroman-6-yl)-2-(3′-fluoro-[1,1′-biphenyl]-3-yl)-3,5-dimethylpyrazolo[1,5-a]pyrimidin-6-yl)acetic acid] | < 0.1 µM |  |
| Cc1nc2cc(-c3ccccc3)nn2c(-c2ccc(F)c(Cl)c2)c1C(OC(C)(C)C)C(=O)O (centres unmarked) [Example 82] | > 1 µM |  |
| Cc1nc2cc(-c3ccccc3)nn2c(-c2ccc3c4c(cccc24)CC3)c1C(OC(C)(C)C)C(=O)O (centres unmarked) [Example 65] | > 1 µM |  |
| Cc1nc2c(C)c(-c3cccc(-c4cc(F)c5c(c4C)CCCO5)c3)nn2c(-c2cc(F)c3c(c2C)CCCO3)c1[C@H](OC(C)(C)C)C(=O)O [Example 159, (2S)-2-(tert-Butoxy)-2-(7-(8-fluoro-5-methylchroman-6-yl)-2-(3-(8-fluoro-5-methylchroman-6-yl)phenyl)-3,5-dimethylpyrazolo[1,5-a]pyrimidin-6-yl)acetic acid] | < 0.1 µM |  |

| SMILES | EC50 (read-out: Activity) | EC50 (read-out: EC50 μM) |
| --- | --- | --- |
| Cc1nc2cc(-c3ccccc3)nn2c(-c2cc(F)c3c(c2C)CCCO3)c1C(OC(C)(C)C)C(=O)O (centres unmarked) [Example 38] | 0.1 to 1 µM |  |
| Cc1ccccc1-c1c(C(OC(C)(C)C)C(=O)O)c(C)nc2cc(-c3ccccc3)nn12 (centres unmarked) [Example 14] | > 1 µM |  |
| Cc1nc2cc(-c3ccccc3)nn2c(-c2ccccc2Cl)c1C(OC(C)(C)C)C(=O)O (centres unmarked) [Example 55] | > 1 µM |  |
| Cc1nc2cc(-c3ccccc3)nn2c(-c2ccc3c(c2)CCO3)c1C(OC(C)(C)C)C(=O)O (centres unmarked) [Example 26] | 0.1 to 1 µM |  |
| Cc1nc2cc(-c3ccccc3)nn2c(-c2ccccc2)c1C(OC(C)(C)C)C(=O)O (centres unmarked) [Example 10] | > 1 µM |  |
| Cc1nc2c(Cl)c(C)nn2c(-c2ccc3c(c2)CCCO3)c1C(OC(C)(C)C)C(=O)O (centres unmarked) [Example 144, 2-(tert-Butoxy)2-(3-chloro-7-(chroman-6-yl)-2,5-dimethylpyrazolo[1,5-a]pyrimidin-6-yl)acetic acid] | 0.1 to 1 µM |  |
| Cc1nc2cc(-c3ccnc(OCc4ccccc4)c3)nn2c(-c2cc(F)c3c(c2C)CCCO3)c1C(OC(C)(C)C)C(=O)O (centres unmarked) [Example 107, 2-(2-(2-(Benzyloxy)pyridin-4-yl)-7-(8-fluoro-5-methylchroman-6-yl)-5-methylpyrazolo[1,5-a]pyrimidin-6-yl)-2-tert-butoxyacetic acid, TFA salt] | < 0.1 µM | 0.008 µM |
| Cc1nc2cc(-c3cccc(OCc4ccccc4Cl)c3)nn2c(-c2cc(F)c3c(c2C)CCCO3)c1C(OC(C)(C)C)C(=O)O (centres unmarked) [Example 102, 2-tert-Butoxy-2-(2-(3-(2-chlorobenzyloxy)phenyl)-7-(8-fluoro-5-methylchroman-6-yl)-5-methylpyrazolo[1,5-a]pyrimidin-6-yl)acetic acid, TFA salt] | < 0.1 µM |  |
| Cc1nc2cc(-c3cccc(-c4cnc5ccccc5c4)c3)nn2c(-c2cc(F)c3c(c2C)CCCO3)c1[C@H](OC(C)(C)C)C(=O)O [Example 172, (2S)-2-(tert-Butoxy)-2-(7-(8-fluoro-5-methylchroman-6-yl)-5-methyl-2-(3-(quinolin-3-yl)phenyl)pyrazolo[1,5-a]pyrimidin-6-yl)acetic acid] | < 0.1 µM |  |
| Cc1nc2cc(-c3ccccc3)nn2c(-c2ccc(C(F)(F)F)cc2)c1C(OC(C)(C)C)C(=O)O (centres unmarked) [Example 15] | > 1 µM |  |
| Cc1cccc(-c2cc3nc(C)c(C(OC(C)(C)C)C(=O)O)c(-c4ccc5c(c4)CCCO5)n3n2)c1 (centres unmarked) [Example 114, 2-tert-Butoxy-2-(7-(chroman-6-yl)-5-methyl-2-m-tolylpyrazolo[1,5-a]pyrimidin-6-yl)acetic acid, TFA salt] | 0.1 to 1 µM |  |
| Cc1nc2cc(-c3ccccc3)nn2c(-c2cccc3cnccc23)c1C(OC(C)(C)C)C(=O)O (centres unmarked) [Example 73] | > 1 µM |  |
| Cc1nc2c(-c3ccc(F)cc3)c(-c3ccccc3)nn2c(-c2cc(F)c3c(c2C)CCCO3)c1C(OC(C)(C)C)C(=O)O (centres unmarked) [Example 136, 2-(tert-Butoxy)-2-(7-(8-fluoro-5-methylchroman-6-yl)-3-(4-fluorophenyl)-5-methyl-2-phenylpyrazolo[1,5-a]pyrimidin-6-yl)acetic acid] | > 1 µM | 1.6 µM |
| COc1ccc(-c2c(C(OC(C)(C)C)C(=O)O)c(C)nc3cc(-c4ccccc4)nn23)cc1OC (centres unmarked) [Example 22] | > 1 µM |  |
| Cc1nc2cc(-c3ccccc3)nn2c(-c2ccc3ccncc3c2)c1C(OC(C)(C)C)C(=O)O (centres unmarked) [Example 79] | > 1 µM |  |
| Cc1nc2cc(-c3ccccc3)nn2c(-c2ccncc2)c1C(OC(C)(C)C)C(=O)O (centres unmarked) [Example 21] | > 1 µM |  |
